Laboratory results reported in ChEMBL document CHEMBL1157919, “Optimization of 7-alkene-3-quinolinecarbonitriles as Src kinase inhibitors” (Bioorg Med Chem Lett, 2010).
Each block holds one compound with its values, some of them ahead of it.

What was measured:
[1] = target: RAC-alpha serine/threonine-protein kinase (Homo sapiens, UniProt P31749); assay: Inhibition of AKT
[2] = Half life in rat liver microsomes; assay type: ADME, Microsome
[3] = target: Tyrosine-protein kinase ABL1 (Homo sapiens, UniProt P00519); assay: Inhibition of Abl
Tyrosine-protein kinase ABL1, sequence (P00519 whole entry): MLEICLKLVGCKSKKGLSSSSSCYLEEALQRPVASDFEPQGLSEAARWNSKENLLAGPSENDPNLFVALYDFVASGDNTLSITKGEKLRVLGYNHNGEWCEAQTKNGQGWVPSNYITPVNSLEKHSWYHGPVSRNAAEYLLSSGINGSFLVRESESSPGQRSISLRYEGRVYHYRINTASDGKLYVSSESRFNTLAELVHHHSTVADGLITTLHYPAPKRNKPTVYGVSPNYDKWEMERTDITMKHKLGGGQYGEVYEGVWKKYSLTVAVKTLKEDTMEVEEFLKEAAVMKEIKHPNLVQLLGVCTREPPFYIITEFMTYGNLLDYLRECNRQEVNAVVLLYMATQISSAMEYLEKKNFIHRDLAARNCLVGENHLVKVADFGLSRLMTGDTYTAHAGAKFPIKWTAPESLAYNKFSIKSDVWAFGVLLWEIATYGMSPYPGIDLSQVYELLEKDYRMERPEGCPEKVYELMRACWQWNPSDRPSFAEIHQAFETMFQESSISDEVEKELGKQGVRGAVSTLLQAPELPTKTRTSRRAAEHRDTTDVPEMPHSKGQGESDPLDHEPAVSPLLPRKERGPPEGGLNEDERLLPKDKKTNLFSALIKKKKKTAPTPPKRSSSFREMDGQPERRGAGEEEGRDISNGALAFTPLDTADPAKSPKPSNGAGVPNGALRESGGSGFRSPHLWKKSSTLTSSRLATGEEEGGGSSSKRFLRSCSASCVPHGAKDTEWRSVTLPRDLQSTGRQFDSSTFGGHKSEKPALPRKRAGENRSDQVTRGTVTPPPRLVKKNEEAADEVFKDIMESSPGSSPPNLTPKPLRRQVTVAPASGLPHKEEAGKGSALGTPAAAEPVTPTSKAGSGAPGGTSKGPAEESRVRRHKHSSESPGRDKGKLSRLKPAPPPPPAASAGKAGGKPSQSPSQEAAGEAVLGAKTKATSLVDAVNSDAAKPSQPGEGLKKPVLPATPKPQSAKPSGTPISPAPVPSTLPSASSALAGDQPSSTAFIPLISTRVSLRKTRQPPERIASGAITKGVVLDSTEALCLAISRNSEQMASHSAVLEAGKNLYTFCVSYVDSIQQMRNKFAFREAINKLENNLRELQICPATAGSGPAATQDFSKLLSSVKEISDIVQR

[4] = target: Serine/threonine-protein kinase mTOR (Homo sapiens, UniProt P42345); assay: Inhibition of mTOR
[5] = target: T1, Proto-oncogene tyrosine-protein kinase Src (Homo sapiens, UniProt P12931)
T1 sequence (P12931 2-536 limits assumed): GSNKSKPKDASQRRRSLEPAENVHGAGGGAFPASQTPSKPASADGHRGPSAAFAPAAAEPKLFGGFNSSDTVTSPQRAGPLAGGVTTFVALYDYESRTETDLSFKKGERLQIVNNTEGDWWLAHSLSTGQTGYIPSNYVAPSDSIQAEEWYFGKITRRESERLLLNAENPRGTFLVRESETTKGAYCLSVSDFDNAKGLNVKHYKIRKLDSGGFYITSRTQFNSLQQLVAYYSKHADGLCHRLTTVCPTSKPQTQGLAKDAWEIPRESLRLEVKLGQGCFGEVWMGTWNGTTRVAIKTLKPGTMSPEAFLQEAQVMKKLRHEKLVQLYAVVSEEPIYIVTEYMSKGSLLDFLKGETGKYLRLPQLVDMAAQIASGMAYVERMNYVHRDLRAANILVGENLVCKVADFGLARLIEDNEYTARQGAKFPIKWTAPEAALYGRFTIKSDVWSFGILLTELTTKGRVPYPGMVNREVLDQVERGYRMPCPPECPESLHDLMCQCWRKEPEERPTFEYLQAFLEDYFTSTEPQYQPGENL
Description: Inhibition of human recombinant Src after 70 mins by FRET assay

[6] = Half life in nude mouse microsomes; assay type: ADME, Microsome
[7] = Half life in human microsomes; assay type: ADME, Microsome
[8] = Inhibition of IKK
HT-29 = assay: In vivo antitumor activity against human HT-29 cells at 150 mg/kg, po qd for 14 days measured on day 21; assay type: functional
[9] = target: Mitogen-activated protein kinase kinase kinase 8 (Homo sapiens, UniProt P41279); assay: Inhibition of TPL2
Mitogen-activated protein kinase kinase kinase 8, sequence (P41279 whole entry): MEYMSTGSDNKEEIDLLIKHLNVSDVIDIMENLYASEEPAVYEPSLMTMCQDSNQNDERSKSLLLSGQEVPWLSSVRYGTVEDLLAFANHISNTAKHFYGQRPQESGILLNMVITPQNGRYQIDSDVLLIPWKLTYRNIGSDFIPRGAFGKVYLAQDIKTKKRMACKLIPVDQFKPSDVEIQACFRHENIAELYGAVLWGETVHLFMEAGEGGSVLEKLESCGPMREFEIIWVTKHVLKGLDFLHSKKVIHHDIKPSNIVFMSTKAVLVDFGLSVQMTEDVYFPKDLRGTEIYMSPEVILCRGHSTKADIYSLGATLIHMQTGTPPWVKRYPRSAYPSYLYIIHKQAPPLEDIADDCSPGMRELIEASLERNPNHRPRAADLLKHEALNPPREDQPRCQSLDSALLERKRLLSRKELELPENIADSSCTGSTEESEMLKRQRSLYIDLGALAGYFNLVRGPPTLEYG

[10] = Inhibition of IGFR
[11] = Plasma concentration in nude mouse at 50 mg/kg, po after 24 hrs; assay type: ADME, organism-based; set-up: dose 50 mg/kg, route oral
[12] = target: T1, Proto-oncogene tyrosine-protein kinase Src; assay: Inhibition of human recombinant Src at 10 uM after 70 mins by FRET assay

RAC-alpha serine/threonine-protein kinase, sequence (P31749 whole entry): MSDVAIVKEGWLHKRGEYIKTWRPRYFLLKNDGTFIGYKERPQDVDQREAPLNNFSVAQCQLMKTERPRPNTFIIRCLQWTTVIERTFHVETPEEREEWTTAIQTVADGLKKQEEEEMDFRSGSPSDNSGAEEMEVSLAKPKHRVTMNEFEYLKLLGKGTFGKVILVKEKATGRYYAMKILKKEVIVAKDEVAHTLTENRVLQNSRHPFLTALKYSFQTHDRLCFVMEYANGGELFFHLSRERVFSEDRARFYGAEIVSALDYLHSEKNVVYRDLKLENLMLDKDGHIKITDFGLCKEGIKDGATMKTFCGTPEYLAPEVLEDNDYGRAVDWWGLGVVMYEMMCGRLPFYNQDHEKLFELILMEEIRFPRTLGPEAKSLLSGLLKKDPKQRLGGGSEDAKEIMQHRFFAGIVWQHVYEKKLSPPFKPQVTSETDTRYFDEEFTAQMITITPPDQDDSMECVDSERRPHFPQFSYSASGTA

- IC50 [1]: > 10000 nM
- half-life [2]: 10 min
- IC50 [3]: 0.4 nM
- IC50 [4]: > 10000 nM
- IC50 [5]: 2.1 nM
- half-life [6]: 33 min
- half-life [7]: 11 min
- IC50 [8]: > 10000 nM
- IC50 [9]: > 10000 nM
- IC50 [10]: > 10000 nM
SMILES: COc1cc(Nc2c(C#N)cnc3cc(/C=C/CCN4CCN(C)CC4)c(OC)cc23)c(Cl)cc1Cl
- T/C (HT-29): 0.36

- IC50 [5]: 41 nM
SMILES: N#Cc1cnc2cc(/C=C/CCN3CCOCC3)ccc2c1Nc1ccc(Cl)cc1Cl

- concentration at 24 h [11]: 40 ng/mL
SMILES: COc1cc(Nc2c(C#N)cnc3cc(OCCCN4CCN(C)CC4)c(OC)cc23)c(Cl)cc1Cl [BOSUTINIB]
- T/C (HT-29): 0.43

- IC50 [5]: 2.2 nM
- concentration at 24 h [11]: 36 ng/mL
SMILES: COc1cc(Nc2c(C#N)cnc3cc(/C=C/c4ccc(CN(C)C)cn4)c(OC)cc23)c(Cl)cc1Cl

- IC50 [5]: 340 nM
SMILES: COc1cc(Nc2c(C#N)cnc3ccc(/C=C/CCN4CCOCC4)cc23)c(Cl)cc1Cl

- inhibition [12]: 52%
SMILES: COc1cc(Nc2c(C#N)cnc3c(/C=C/CCN4CCOCC4)cccc23)c(Cl)cc1Cl

- IC50 [5]: 2.2 nM
- concentration at 24 h [11]: 28 ng/mL
SMILES: COc1cc(Nc2c(C#N)cnc3cc(/C=C/c4cccc(CN(C)C)n4)c(OC)cc23)c(Cl)cc1Cl

The next lines start with the compound.

SMILES: COc1cc(Nc2c(C#N)cnc3cc(/C=C/CCCCCCCCCN4CCOCC4)c(OC)cc23)c(Cl)cc1Cl
- IC50 [5]: 130 nM

SMILES: COc1cc(Nc2c(C#N)cnc3cc(/C=C/c4ccc(CN(C)C)cc4)c(OC)cc23)c(Cl)cc1Cl
- IC50 [5]: 2.4 nM
- concentration at 24 h [11]: 10 ng/mL

SMILES: COc1cc(Nc2c(C#N)cnc3cc(/C=C/CCCN4CCOCC4)c(OC)cc23)c(Cl)cc1Cl
- IC50 [5]: 5.4 nM

SMILES: CCN1CCN(CC/C=C/c2cc3ncc(C#N)c(Nc4cc(OC)c(Cl)cc4Cl)c3cc2OC)CC1
- half-life [2]: > 30 min
- IC50 [5]: 1.7 nM

SMILES: COc1cc(Nc2c(C#N)cnc3cc(/C=C/c4cc(CN(C)C)ccn4)c(OC)cc23)c(Cl)cc1Cl
- IC50 [5]: 6.8 nM

SMILES: COc1cc(Nc2c(C#N)cnc3cc(/C=C/CCN4CCCCC4)c(OC)cc23)c(Cl)cc1Cl
- half-life [2]: > 30 min
- IC50 [5]: 2.6 nM

SMILES: COc1cc(Nc2c(C#N)cnc3cc(/C=C/CCN(C)C)c(OC)cc23)c(Cl)cc1Cl
- half-life [2]: > 30 min
- IC50 [5]: 2.5 nM

SMILES: N#Cc1cnc2ccc(/C=C/CCN3CCOCC3)cc2c1Nc1ccc(Cl)cc1Cl
- IC50 [5]: 1200 nM

SMILES: COc1cc(Nc2c(C#N)cnc3cc(/C=C/CCN4CCOCC4)ccc23)c(Cl)cc1Cl
- IC50 [5]: 15 nM

SMILES: COc1cc(Nc2c(C#N)cnc3cc(/C=C/CN4CCOCC4)c(OC)cc23)c(Cl)cc1Cl
- IC50 [5]: 8.7 nM

SMILES: COc1cc(Nc2c(C#N)cnc3cc(/C=C/c4cccc(CN(C)C)c4)c(OC)cc23)c(Cl)cc1Cl
- IC50 [5]: 3 nM

SMILES: COc1cc(Nc2c(C#N)cnc3cc(/C=C/CCN4CCOCC4)c(OC)cc23)c(Cl)cc1Cl
- IC50 [5]: 4.8 nM

SMILES: COc1cc(Nc2c(C#N)cnc3cc(/C=C/CCCCN4CCOCC4)c(OC)cc23)c(Cl)cc1Cl
- IC50 [5]: 18 nM
